Broadly, the inhibition is the drop in the measured response relative to a control, in per cent. As a reminder, the chromatographic logP is lipophilicity estimated from chromatographic retention. Higher therefore signals a more lipophilic compound.

The structures appear in SMILES notation.

From patent publication US11457629B2, “Heteroarylphenylaminoquinolines and analogues” (Bayer Aktiengesellschaft, priority 2017, dated 2022) come the findings set out here.

For data set [1], the system named is Colletotrichum lindemuthianum. Nature of the data set: Example K: comparative data, in vivo preventive test on Colletotrichum lindemuthianum (antrachnose on bean). As to conditions: rate of application 500 ppm, evaluated 6 days after inoculation.
The test system of a further data set is Pyricularia oryzae. Put plainly: microbe, parasite or virus in culture. The format is cell-based. As to conditions: 120 h, read-out: efficacy (inhibition of fungal growth).
Data set [2] is described as follows: Log P by HPLC on reversed phase columns, method [a] (acidic range, 0.1% formic acid). As to conditions: HPLC on reversed phase columns, method [a]: acidic range.
Method: In the following, measurement of Log P values was performed according to EEC directive 79/831 Annex V.A8 by HPLC (High Performance Liquid Chromatography) on reversed phase columns with the following methods: • ^[a]
If more than one Log P value is available within the same method, all the values are given and separated by “+”.
Calibration was done with straight-chain alkan2-ones (with 3 to 16 carbon atoms) with known Log P values (measurement of Log P values using retention times with linear interpolation between successive alkanones).
The subject of data set [3] is Leptnosphaeria nodorum. Nature of the data set: Example D: Leptnosphaeria nodorum in vitro cell test. Conditions: 144 h, read-out: efficacy (inhibition of fungal growth). The format is cell-based.
The subject of the next data set is Septoria tritici. Put plainly: Example L: comparative data, Septoria tritici in vitro cell test. Format: cell-based. As to conditions: rate of application 4 ppm; 7 days incubation. The protocol:
Comparative Data—Septoria tritici In Vitro Cell Test Solvent: DMSOCulture medium: 14.6 g anhydrous D-glucose (VWR), 7.1 g Bacteriological Peptone (Oxoid), 1.4 g granulated Yeast Extract (Merck), QSP 1 literInoculum: spore suspension The compounds to be tested were solubilized in DMSO and the solution used to prepare the required range of concentrations. […] A spore suspension of S. tritici was prepared and diluted to the desired spore density. The tested compounds were evaluated for their ability to inhibit spore germination and mycelium growth in liquid culture assay. The compounds were added in the desired concentration to the culture medium to with spores. […] Inhibition of fungal growth was determined by comparing the absorbance values in wells containing the tested compound with the absorbance in control wells without tested compound.

For a further data set, the system named is Ustilago avenae. Nature of the data set: Example J: comparative data, Ustilago avenae in vitro cell test. The format is cell-based. Conditions: rate of application 20 ppm; 4 days incubation.
Data set [4] concerns Leptnosphaeria nodorum. Put plainly: Example I: comparative data, Leptnosphaeria nodorum in vitro cell test. The format is cell-based. As to conditions: rate of application 4 ppm; 6 days incubation.
The next data set has as its system Botrytis cinerea. Put plainly: Example H: comparative data, in vivo preventive test on Botrytis cinerea (grey mould), gherkin. Conditions: rate of application 500 ppm, evaluated 4 to 5 days after inoculation.
Data set [5] concerns Colletotrichum lindemuthianum. Nature of the data set: Example F: Colletotrichum lindemuthianum in vitro cell test. The format is cell-based. Conditions: 144 h, read-out: efficacy (inhibition of fungal growth).

`CC(C)n1ccc(-c2c(F)cccc2Nc2cnc3ccccc3c2)n1` [Example I-027] came in with an Efficacy in % in [1] of 65%. The inhibition at 20 ppm in the data set on Pyricularia oryzae fell in the range of 90 to 100%; in the data set with Leptnosphaeria nodorum [3], 80 to 89%. In addition, the logP in data set [2] is 4.05 ^[a].
On to `CC(C)(O)c1ccnn1-c1ccccc1Nc1cnc2ccccc2c1` [Example I-063], for which, in the data set with Septoria tritici, the Efficacy in % is listed as 96%. In data set [2], this compound gave a chromatographic logP of 1.79.
For the compound `C=C(C)c1ccnn1-c1ccccc1Nc1cnc2ccccc2c1` [Example I-066], the results for the inhibition at 20 ppm (in the data set on Pyricularia oryzae; in the data set with Leptnosphaeria nodorum [3]; in data set [5]) were 90 to 100%, 90 to 100% and 80 to 89%, respectively. For the same compound, the Efficacy in % with Ustilago avenae is given as 63%; in the data set on Leptnosphaeria nodorum [4], 94%; with Botrytis cinerea, 98%. The same compound had a chromatographic logP in data set [2] of 2.73.
With `CC(C)n1ccc(-c2c(F)cccc2Nc2cnc3ccccc3c2)n1` [Example I-067], in [2], the logP was 1.94 ^[a]. The same compound had an Efficacy in % in the data set with Botrytis cinerea of 95%.
`C=C(C)c1ccnn1-c1ccccc1Oc1cnc2ccccc2c1` [drawing 50, reference compound] showed an Efficacy in % in the data set on Leptnosphaeria nodorum [4] of 64%.
With `C=C(C)c1ccnn1-c1ccccc1Oc1cnc2ccccc2c1` [drawing 52, reference compound], the Efficacy in % in the data set with Ustilago avenae is 1%.
`CC(C)n1ccc(-c2c(F)cccc2Oc2cnc3ccccc3c2)n1` [drawing 54, reference compound]: the Efficacy in % in data set [1] came to 0%.
Consider `CC(C)(O)c1ccnn1-c1ccccc1Oc1cnc2ccccc2c1` [reference compound], for which the Efficacy in % with Septoria tritici came to 0%.
